Source: the supplement of paper PMC13207355

Tests used:
Conditions in all cases: exposure time: 72 h
E13 [1] = patient-derived glioblastoma stem cells of classical subtype; test: surviving fraction (nuclei count normalised to DMSO); higher = more cells surviving (less toxic)
E21 [2] = patient-derived glioblastoma stem cells of mesenchymal subtype; test: as above
E28 [3] = patient-derived glioblastoma stem cells of classical subtype; test: as above
E31 [4] = patient-derived glioblastoma stem cells of proneural subtype; test: as above
E34 [5] = patient-derived glioblastoma stem cells of proneural subtype; test: as above
E57 [6] = patient-derived glioblastoma stem cells of mesenchymal subtype; test: as above
FT3469 [7] = normal neural stem cell line; test: as above
E13 [8] = test: phenotypic distance (Euclidean, principal components) from DMSO controls (arbitrary units); higher = stronger morphological change
E21 [9] = test: as above
E28 [10] = test: as above
E31 [11] = test: as above
E34 [12] = test: as above
E57 [13] = test: as above
FT3469 [14] = test: as above
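For phenotypic distance (Euclidean, principal components) from DMSO controls in this document: cell Painting imaging in 384-well plates, CellProfiler features reduced to at least 20 principal components, Euclidean distance versus same-plate DMSO vehicle wells (0.1% v/v), median over six images per well.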
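For surviving fraction (nuclei count normalised to DMSO) in this document: nuclei counted by high-content imaging of Hoechst-stained cells in laminin-coated 384-well plates, relative to 0.1% DMSO vehicle wells, with staurosporine as cell-death control.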

OC[C@H]1O[C@@H](Oc2ccc(O)cc2)[C@H](O)[C@@H](O)[C@@H]1O [Arbutin]
Conditions | phenotypic distance | surviving fraction
E13 [1], 4.1 nM | – | 1.01
E13 [1], 12.3 nM | – | 1.04
E13 [1], 37 nM | – | 0.905
E13 [1], 111.1 nM | – | 0.917
E13 [1], 333.3 nM | – | 0.929
E13 [1], 1000 nM | – | 1.04
E13 [1], 3000 nM | – | 0.991
E13 [8], 4.1 nM | 0.566 | –
E13 [8], 12.3 nM | 0.859 | –
E13 [8], 37 nM | 0.511 | –
E13 [8], 111.1 nM | 0.508 | –
E13 [8], 333.3 nM | 0.829 | –
E13 [8], 1000 nM | 0.191 | –
E13 [8], 3000 nM | 0.813 | –
E21 [2], 4.1 nM | – | 1.03
E21 [2], 12.3 nM | – | 0.989
E21 [2], 37 nM | – | 1.07
E21 [2], 111.1 nM | – | 0.916
E21 [2], 333.3 nM | – | 1.05
E21 [2], 1000 nM | – | 0.971
E21 [2], 3000 nM | – | 0.967
E21 [9], 4.1 nM | 0.434 | –
E21 [9], 12.3 nM | 1.06 | –
E21 [9], 37 nM | 0.902 | –
E21 [9], 111.1 nM | 0.857 | –
E21 [9], 333.3 nM | 0.484 | –
E21 [9], 1000 nM | 0.568 | –
E21 [9], 3000 nM | 0.491 | –
E28 [3], 4.1 nM | – | 1.1
E28 [3], 12.3 nM | – | 1.03
E28 [3], 37 nM | – | 1.07
E28 [3], 111.1 nM | – | 1.15
E28 [3], 333.3 nM | – | 1.07
E28 [3], 1000 nM | – | 1.07
E28 [3], 3000 nM | – | 0.905
E28 [10], 4.1 nM | 0.41 | –
E28 [10], 12.3 nM | 0.873 | –
E28 [10], 37 nM | 0.666 | –
E28 [10], 111.1 nM | 1.1 | –
E28 [10], 333.3 nM | 0.543 | –
E28 [10], 1000 nM | 0.716 | –
E28 [10], 3000 nM | 0.531 | –
E31 [4], 4.1 nM | – | 0.937
E31 [4], 12.3 nM | – | 0.846
E31 [4], 37 nM | – | 0.945
E31 [4], 111.1 nM | – | 0.889
E31 [4], 333.3 nM | – | 1.05
E31 [4], 1000 nM | – | 1.13
E31 [4], 3000 nM | – | 0.884
E31 [11], 4.1 nM | 0.898 | –
E31 [11], 12.3 nM | 0.639 | –
E31 [11], 37 nM | 0.606 | –
E31 [11], 111.1 nM | 0.754 | –
E31 [11], 333.3 nM | 0.505 | –
E31 [11], 1000 nM | 0.754 | –
E31 [11], 3000 nM | 0.805 | –
E34 [5], 4.1 nM | – | 0.904
E34 [5], 12.3 nM | – | 1.15
E34 [5], 37 nM | – | 1.05
E34 [5], 111.1 nM | – | 1.02
E34 [5], 333.3 nM | – | 1.08
E34 [5], 1000 nM | – | 1.02
E34 [5], 3000 nM | – | 0.848
E34 [12], 4.1 nM | 0.689 | –
E34 [12], 12.3 nM | 0.94 | –
E34 [12], 37 nM | 0.434 | –
E34 [12], 111.1 nM | 0.454 | –
E34 [12], 333.3 nM | 0.675 | –
E34 [12], 1000 nM | 0.496 | –
E34 [12], 3000 nM | 1.12 | –
E57 [6], 4.1 nM | – | 0.949
E57 [6], 12.3 nM | – | 0.993
E57 [6], 37 nM | – | 1.11
E57 [6], 111.1 nM | – | 0.918
E57 [6], 333.3 nM | – | 1.07
E57 [6], 1000 nM | – | 1
E57 [6], 3000 nM | – | 1
E57 [13], 4.1 nM | 0.568 | –
E57 [13], 12.3 nM | 0.753 | –
E57 [13], 37 nM | 0.629 | –
E57 [13], 111.1 nM | 0.522 | –
E57 [13], 333.3 nM | 0.897 | –
E57 [13], 1000 nM | 0.4 | –
E57 [13], 3000 nM | 0.484 | –
FT3469 [7], 4.1 nM | – | 1.08
FT3469 [7], 12.3 nM | – | 0.99
FT3469 [7], 37 nM | – | 1.28
FT3469 [7], 111.1 nM | – | 0.987
FT3469 [7], 333.3 nM | – | 1.18
FT3469 [7], 1000 nM | – | 1.16
FT3469 [7], 3000 nM | – | 0.993
FT3469 [14], 4.1 nM | 0.247 | –
FT3469 [14], 12.3 nM | 0.982 | –
FT3469 [14], 37 nM | 0.795 | –
FT3469 [14], 111.1 nM | 1.03 | –
FT3469 [14], 333.3 nM | 0.636 | –
FT3469 [14], 1000 nM | 1.1 | –
FT3469 [14], 3000 nM | 0.991 | –
